Data published in patent US7442375B2, “Compositions of beta-defensin inducing agents” (Case Western Reserve University, priority 2002, dated 2008).
Like-named read-outs stand apart in the source and are kept apart here. Positions of bridges follow the written chain, without caps; N, C: chain ends. No end group written: not given here.

Assays:
[1] = tested on: epithelial beta defensin genes; details: appears to involve NF-kappaB/rel; cited from earlier work
[2] = tested on: hBD-1 mRNA; assay: Real-time RT-PCR assay to quantify hBD mRNA in NHOEC; type: cell-based; details: normal human oral epithelium and cells; positive control of FIG. 3
Description: (§1) NHOEC monolayers were exposed to X4 HIV-1 strains B-HXB2 and B-NL4-3 or R5 strains B-93US142 and B-92US660 at an MOI of 0.01 infectious unit/cell. After 48 h, hBD-1, -2, and -3 mRNA expression was determined by real-time PCR. (a) Standard curves generated using the relationship of known number of input templates to the cycle threshold (i.e., PCR cycle number at which the mean fluorescence increases to 10 SD above baseline). Cycle threshold is directly proportional to the log of the input copy equivalents. Linear dynamic ranges and regression values are indicated. (b) Quantification of hBD mRNA in the presence and absence of HIV-1. (c) Comparison of hBD expression relative to the uninfected culture. PMA, phorbol myristate acetate, positive control. Results are representative of three independent experiments.
(§2) RNA was extracted from NHOEC monolayers post HIV-1 challenge [multiplicity of infection (MOI), 0.01 infectious unit/cell] using TRIzol according to the manufacturer's protocol (Invitrogen Life Technologies, Carlsbad, Calif., USA). Human keratin 5 RNA was used to normalize RNA content in each preparation. Intron spanning primers used and PCR conditions for these reactions have been described previously [Krisanaprakorkit et al., 1998 and 2000; Harder et al.]. Each 25-μl PCR mixture consisted of 125 ng RNA, primers (0.4 μM each), 0.4 mM dNTPs, 5 mM MgCl2, a mixture of reverse transcriptase and Taq DNA polymerase, 1 3 PCR buffer, RNase inhibitor (5 U), and SYBR Green dye diluted 1:2500 (Sigma, St. Louis, Mo., USA) as described [Weber et al.]. Standard curves were constructed using RNA generated by transcribing hBD-1, -2, or -3 plasmids using the RiboProbe in vitro transcription system (Promega, Madison, Wis., USA). Concentration of mRNAs was determined by spectrometry at 260 nm. […]
(§3) NHOEC monolayers were challenged with four different HIV-1 strains representing both viral bio-phenotypes (i.e., SI/X4, B-HXB2 and B-NL4-3; NSI/R5, B-93US142 and B-92US660) Forty-eight hours postinfection, hBD-1, -2, and -3 mRNA expression was measured by real-time PCR. […]

[3] = tested on: hBD-2 mRNA; assay: as above; type: cell-based; details: normal human oral epithelium and cells; positive control of FIG. 3
Description: as §1, §2, §3

[4] = tested on: hBD-3 mRNA; assay: as above; type: cell-based; details: normal human oral epithelium and cells; positive control of FIG. 3
Description: as §1, §2, §3

[5] = tested on: hBD-2 mRNA; details: 1.7 mM in culture medium, epidermal cells; cited from earlier work
[6] = tested on: hBD-3 mRNA; details: 1.7 mM in culture medium, epidermal cells; cited from earlier work
[7] = tested on: HIV-1 R5 B-93US142; type: cell-based
Description: (§4) HIV-1 strains (X4 HXB2 and R5 93US142) were incubated in 10 mM PB with increasing concentrations of hBD and used to infect GHOST X4/R5 cells. (a) Qualitative determination of HIV-1 infection, measured by GFP fluorescence, in the absence (−C) and presence (+C) of virus preincubated in 10 mM PB. (b) Anti-HIV-1 activity of hBD in GHOST X4/R5 cells using fluorescence microscopy. (c) Anti-HIV-1 activity of hBD measured by RT activity in cell-free culture supernatant, relative to the positive control (i.e., HIV-1 infection in the absence of hBD). (d) Antiretroviral activity of hBD against CXCR4- and CCR5-tropic HIV-1 strains in three different environments: DMEM+10% FBS (complete medium); DMEM alone (Medium no FBS); 10 mM PB. Viruses were incubated with 20 μg/ml of each hBD for 1 h in each condition and used to infect CEM X4/R5 cells as described. Results are representative of three independent experiments.
(§5) HIV-1 isolates were incubated with increasing concentrations (5-40 μg/ml) of hBD-1, -2, and -3, in three different conditions: high salt complete medium (RPMI-1640 or DMEM supplemented with 10% fetal bovine serum, FBS); high salt medium in the absence of FBS; or low salt medium (10 mM phosphate buffer), 37° C. for 1 h. Respective mixtures were used to infect PBMC, Ghost X4/R5 or CEM X4/R5 cells at an MOI of […]. After 2 h incubation at 37° C., 5% CO2, cells were washed three times with phosphate-buffered saline (PBS) and cultured in complete medium for 48 h. In the case of Ghost X4/R5 cells, these were washed, resuspended in PBS, and analyzed by fluorescence microscopy for GFP expression as described [Morner et al.]. Cell-free supernatants from PBMC, Ghost X4/R5 and CEM X4/R5 cultures were used to monitor infectivity by the reverse transcriptase (RT) assay [Quinones-Mateu et al.]. The 50% inhibitory concentration (IC50) of each hBD was determined using X4 or R5 HIV-1 isolates. Viruses (0.01 MOI) were incubated with increasing concentrations of hBD-1, -2, and 3 (up to 40 µg/ml) in low salt medium for 1 h and used to infect CEM X4/R5 cells. After 2 h incubation at 37° C., 5% CO2, cells were washed twice with PBS and cultured in complete medium. Supernatant samples were removed on day 5 post-infection and virus production was measured using […] the RT assay [Id.]. Cytotoxicity of hBD was quantified by determining the number of viable cells using a tetrazolium-based colorimetric (MTT) assay [Pauwels et al.].
(§6) Since the antibacterial activity of beta-defensins is sensitive to high salt and serum concentrations, the anti-HIV-1 activity of hBD was initially evaluated in a low salt, serum free environment, mimicking oral mucosal conditions [Mandel et al.]. Two HIV-1 isolates (X4 B-HXB2 and R5 B-93US142) were preincubated for 1 h with increasing concentrations of recombinant hBD-1, -2, and -3, in 10 mM phosphate buffer (PB). GHOST CCR5/CXCR4 cells were then exposed to the mixtures for 48 h in complete medium. […] When CXCR4- and CCR5-tropic HIV-1 strains were preincubated with beta-defensins in high salt medium (DMEM) supplemented with 10% FBS, no antiviral effect was detected (FIG. 4d). However, preincubation in DMEM without FBS inhibited replication of X4, but not R5, HIV-1 isolates (FIG. 4d). Under low salt conditions (i.e., 10 mM PB, no FBS) the 50% inhibitory concentration for both agents against X4 and R5 viruses ranged from 9 to 19 μg/ml and 20 to 40 μg/ml, respectively.

[8] = tested on: HIV-1 X4 B-HXB2; type: cell-based
Description: as §4, §5, §6

[9] = biological target: CCR5 (Homo sapiens, UniProt P51681); assay: Flow cytometric analysis of co-receptor surface expression on unstimulated PBMC; type: cell-based; set-up: endogenous in cells; host or cells: unstimulated peripheral blood mononuclear cells (PBMC); details: 30 μg/ml, 3 h, high salt medium without FBS
CCR5, sequence (P51681 whole entry): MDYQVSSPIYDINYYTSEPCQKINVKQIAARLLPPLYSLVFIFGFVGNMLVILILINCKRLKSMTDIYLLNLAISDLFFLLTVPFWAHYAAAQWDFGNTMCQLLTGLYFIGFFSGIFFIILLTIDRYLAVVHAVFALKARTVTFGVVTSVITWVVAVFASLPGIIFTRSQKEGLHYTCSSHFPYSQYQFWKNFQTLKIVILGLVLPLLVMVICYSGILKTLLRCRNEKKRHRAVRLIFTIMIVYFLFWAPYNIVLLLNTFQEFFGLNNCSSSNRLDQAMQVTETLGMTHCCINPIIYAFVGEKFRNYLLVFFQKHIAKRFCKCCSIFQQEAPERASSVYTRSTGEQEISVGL
Description: (§7) Unstimulated PBMC were treated for 3 hrs with hBD-1, -2, or -3 (30 μg/ml) in DMEM (high salt) in the absence of FBS. The CXCR4 natural ligand SDF-1AE (2 μg/ml) and the CCR5 antagonist PSC-RANTES (100 nM) were used as positive controls. CXCR4 and CCR5 surface expression was calculated using known ratios of QuantiBRITE-PE beads (Becton Dickenson) by flow cytometry. Results are the means of seven experiments±SD.
(§8) Unstimulated PBMC were treated with 30 μg/ml hBD-1, -2, or -3 in high salt medium (RPMI-1640) in the absence of FBS, 3 h. The CXCR4 natural ligand SDF-1α (R&D Systems, Minneapolis, Minn., USA) and the CCR5 antagonist PSC-RANTES were used as controls. Cells were incubated with peridinin chlorophyll protein-conjugated anti-human CD4 antibody, and either phycoerythrin (PE)-conjugated anti-human CXCR4 antibody, PE-conjugated anti-human CCR5 antibody, or PE-conjugated mouse immunoglobulin G2a (IgG2a), isotype standard (PharmMingen, San Diego, Calif., USA) [Salkowitz et al.]. Fluorescence intensity was reported as receptor density by quantitative flow cytometry (FACSCaliber; Becton Dickenson, San Jose, Calif., USA) [Iyer et al.]. Data were analyzed using CELLQuest software (Becton Dickenson).
(§9) Surface expression of CXCR4 was decreased by 51%±18% and 52%±20% (SD) respectively after incubation with 30 μg/ml of hBD-2 or hBD-3 (FIG. 5).

[10] = biological target: CXCR4 (Homo sapiens, UniProt P61073); assay: as above; type: cell-based; set-up: endogenous in cells; host or cells: unstimulated peripheral blood mononuclear cells (PBMC); details: 30 μg/ml, 3 h, high salt medium without FBS
CXCR4, sequence (P61073 whole entry): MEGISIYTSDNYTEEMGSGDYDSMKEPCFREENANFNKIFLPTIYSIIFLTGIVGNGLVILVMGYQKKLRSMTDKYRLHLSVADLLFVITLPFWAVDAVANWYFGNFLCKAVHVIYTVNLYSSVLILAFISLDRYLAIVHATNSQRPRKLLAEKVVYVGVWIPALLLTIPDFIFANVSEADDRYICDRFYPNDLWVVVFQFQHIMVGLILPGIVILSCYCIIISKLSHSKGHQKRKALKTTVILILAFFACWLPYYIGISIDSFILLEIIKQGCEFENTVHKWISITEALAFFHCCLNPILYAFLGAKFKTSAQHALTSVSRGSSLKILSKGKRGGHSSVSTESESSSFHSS
Description: as §7, §8, §9

[11] = 20 μg/ml, preincubation in 10 mM PB
[12] = virus preincubated 1 h with hBD in 10 mM PB, GHOST cells 48 h, GFP fluorescence

CC[C@H](C)[C@H](N)C(=O)O [isoleucine-1]
transcription of epithelial beta defensin genes [1]: can activate transcription

CCCCCCCCCCCCCC(=O)O[C@@H]1[C@@H](C)[C@@]2(O)[C@@H](C=C(CO)C[C@]3(O)C(=O)C(C)=C[C@@H]23)[C@@H]2C(C)(C)[C@]12OC(C)=O [phorbol myristate acetate]
HBD-1 mRNA expression [2]: not | HBD-2 mRNA expression [3]: induces | HBD-3 mRNA expression [4]: induces

[Ca+2] [calcium]
HBD-2 mRNA expression [5]: sufficient to induce | HBD-3 mRNA expression [6]: sufficient to induce

GIGDPVTCLKSGAICHPVFCPRRYKQIGTCGLPGTKCCKKP (disulfide 8-37, 15-30, 20-38) [hBD-2]
inhibition (RT activity relative to positive control) [7, 11]: 15% | inhibition (RT activity relative to positive control) [8, 11]: 61%

hBD-1: Recombinant human β-defensin 1 produced from infection of Sf21 cells with baculovirus constructs (DHYNCVSSGGQCLYSACPIFTKIQGTCYRGKAKCCK; ends and bridges not checked; cysteine pairing not given here; UniProt P60022 33-68, looked up)
anti-HIV-1 activity [7, 12]: no effect | anti-HIV-1 activity [8, 12]: no effect | effect on CCR5 expression [9]: not altered | effect on surface expression of CXCR4 [10]: did not affect
